Assay [1] concerns T1, rKpACE (KpACE, Klebsiella pneumoniae Acetylated CPS Esterase).
T1 construct: signal peptide (1-21) removed; N-terminal 6xHis tag; pET-28a, E. coli BL21(DE3)
Nature of the assay: acetylesterase assay, Michaelis-Menten fit. Format: biochemical. As to conditions: pH 7.4.

The target in assay [2] is recombinant KpACE (Klebsiella pneumoniae Acetylated CPS Esterase) (Klebsiella pneumoniae ATCC43816). In words: SEC; Superdex 200; rKpACE peak at 14.38 mL (75.6 kDa); predicted monomer 43.1 kDa.

Km and stoichiometry N data for two compounds are collected here from publication PMC11556721, “A novel esterase regulates Klebsiella pneumoniae hypermucoviscosity and virulence” (PLOS Pathogens, 2024).

Turning to `CC(=O)Oc1ccc2c(C)cc(=O)oc2c1` [4-MU-Ac, 4-methylumbelliferyl acetate], the Michaelis constant (Km) in assay [1] was 160 ± 30 µM.

Consider “recombinant KpACE (Klebsiella pneumoniae Acetylated CPS Esterase) (enzyme)”, for which the stoichiometry N in assay [2] was 2.

Broadly, the Km is the substrate concentration at which the rate is half of its maximum. A word on the stoichiometry N: it is a count of units in the complex or per binding partner.
